How the values were obtained:
human DGAT1 = target: T1, human DGAT1 (Homo sapiens, UniProt O75907); assay: DGAT1 FlashPlate assay: inhibition of DGAT1 activity in membrane preparations; assay type: biochemical; conditions: human DGAT1 membranes from SF9 cells, [3H]-oleoylCoA, 120 min at 37° C.; for IC50: read-out: pIC50 (-logIC50, 50% inhibition of DGAT1 activity) (converted)
T1 construct: FLAG (N); made in house; host or cells: SF9 insect cells (pFastBac / baculovirus); total cell membranes
T1 sequence (O75907 1-488): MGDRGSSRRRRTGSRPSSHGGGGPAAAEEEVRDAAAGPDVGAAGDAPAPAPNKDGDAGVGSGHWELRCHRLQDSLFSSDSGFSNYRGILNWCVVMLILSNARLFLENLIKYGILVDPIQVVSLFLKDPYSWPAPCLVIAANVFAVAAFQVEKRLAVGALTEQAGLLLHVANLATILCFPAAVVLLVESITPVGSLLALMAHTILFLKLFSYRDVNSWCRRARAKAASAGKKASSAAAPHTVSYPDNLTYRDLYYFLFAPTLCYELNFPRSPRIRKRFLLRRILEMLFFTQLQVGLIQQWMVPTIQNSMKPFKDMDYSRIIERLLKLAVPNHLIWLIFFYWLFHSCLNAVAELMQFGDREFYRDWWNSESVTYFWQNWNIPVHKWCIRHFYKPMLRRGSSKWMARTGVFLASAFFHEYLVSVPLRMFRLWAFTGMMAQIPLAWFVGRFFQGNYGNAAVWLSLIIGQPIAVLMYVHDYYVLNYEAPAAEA
Excerpt: The inhibiting activity of compounds of Class A, Class B, Class C and Class D on DGAT1 activity was screened in a single well procedure assay using DGAT1 comprising membrane preparations and DGAT1 substrate comprising micelles and determining formed radio-active triacylglycerol coming in close proximity of a flashplate surface by radioluminescence.
Said assay is described in full detail in WO2006/067071, the content of which is incorporated herein by reference.
By DGAT1 activity is meant the transfer of coenzyme A activated fatty acids to the 3-position of 1,2-diacylglycerols, thus forming a triglyceride molecule, by enzyme DGAT1.
human DGAT1 (NM012079.2) was cloned into the pFastBac vector, containing translation start, a FLAG-tag at the N-terminus as described in literature and a viral Kozak sequence (AAX) preceding the ATG to improve expression in insect cells. Expression was done as described in literature (Cases, S., Smith, S. J., Zheng, Y., Myers H. M., Lear, S. R., Sande, E., Novak, S., Collins, C., Welch, C. B., Lusis, A. J., Erickson, S. K. and Farese, R. V. (1998) Proc. Natl. Acad. Sci. USA 95, 13018-13023.) using SF9 cells.
72h transfected SF9 cells were collected by centrifugation (13000 rpm-15 min-4° C.) and lysed in 2×500 ml lysisbuffer (0.1M Sucrose, 50 mM KCl, 40 mM KH2PO4, 30 mM EDTA pH 7.2. Cells were homogenized by cell disruptor. After centrifugation 1380 rpm-15 min-4° C. (SN discarded), pellet was resuspended in 500 ml lysisbuffer and total cell membranes collected by ultracentrifugation at 34000 rpm(100 000 g) for 60 min (4° C.). The collected membranes were resuspended in lysis buffer, divided in aliquots and stored with 10% glycerol at −80° C. until use.
• a) 1,2-dioleoyl-sn-glycerol, 10 mg/ml (1,2-diacylglycerol (DAG)) Dissolve in acetonitrile; evaporate the acetonitrile solution under nitrogen and reconstitute in chloroform at a final concentration of 10 mg/ml. • b) L-α-phosphatidylcholine, 1 mg/ml (phosphatidylcholine (PC)) • Dissolve in chloroform at a final concentration of 1 mg/ml and store at 4° C. • c) L-α-phosphatidyl-L-serine, 1 mg/ml (phophatidylserine (PS)) • Dissolve in chloroform at a final concentration of 1 mg/ml and store at 4° C. Method
Add 1 ml dioleoyl-sn-glycerol (10 mg/ml) to 10 ml of L-α-phosphatidylcholine (1 mg/ml) and 10 ml of L-α-phosphatidyl-L-serine (1 mg/ml) in a thick glass recipient. Evaporate under nitrogen and put on ice for 15 min Reconstitute in 10 ml Tris/HCl (10 mM, pH 7.4) by sonication on ice. The sonification process includes sonification cycles of 10 seconds in the sonification bath followed by 10 seconds cool down on ice and repeating this sonification cycle till a homogeneous solution is obtained (takes about 15 min). The thus obtained micelles are stored at −20° C. till later use and contain DAG at a final concentration of 1.61 mM.
• a) Assaybuffer • 50 mM Tris-HCl (pH 7.4), 150 mM MgCl2, 1 mM EDTA, 0.2% BSA. • b) N-ethylmaleimide, 5M • Dissolve 5 g into a final volume of 8 ml DMSO 100% and store at −20° C. in aliquots till later use. • c) Substrate mix (for 1 384 well plate=3840 μl) • 612 μl micelles stock (51 μM final) • 16.6 μl oleoylCoA 9.7 mM • 23 μl [^3H]-oleoylCoA (49 Ci/mmol, 500 μCi/ml) • 3188.4 μl Tris pH 7.4, 10 mM • d) Enzyme mix (for 1 384 well plate=3520 μl) (5 μg/ml) • Add 11.73 μl of DGAT membrane stock (1500 μg/ml stock) to 3508 μl assay buffer. • e) Stop mix (for 1 384 well plate=7.68 ml) (250 mM) • Add 384 μl of N-ethylmaleimide (5M) to 3.456 ml DMSO 100%, and further dilute 3.84 ml of said solution with 3.84 ml DMSO 10%. Method
DGAT activity in membrane preparations was assayed in 50 mM Tris-HCl (pH 7.4), 150 mM MgCl2, 1 mM EDTA and 0.2% BSA, containing 50 μM DAG, 32 μg/ml PC/PS and 8.4 μM [^3H]-oleoylCoA (at a specific activity of 30 nCi/well) in a final volume of 50 μl in 384-well format using the red shifted Basic Image FlashPlate™ (Perkin Elmer Cat.No. SMP400). […]

O=C(Nc1cccc(N2CCCC2)c1)c1ccc(N2CCN(C(=O)Cc3c(Cl)cc(CN4CCCC4)cc3Cl)CC2)cc1 [147-Class C, 4-[4-[[2,6-dichloro-4-(1-pyrrolidinylmethyl)phenyl]acetyl]-1-piperazinyl]-N-[3-(1-pyrrolidinyl)phenyl]-benzamide]
IC50 (human DGAT1): 38.9 nM | melting point: 262 to 263 °C

CCN1CCN(Cc2cc(Cl)c(CC(=O)N3CCN(c4ccc(C(=O)Nc5cccc(N6CCCC6)c5)cc4)CC3)c(Cl)c2)CC1 [148-Class C, 4-[4-[[2,6-dichloro-4-[(4-ethyl-1-piperazinyl)methyl]phenyl]acetyl]-1-piperazinyl]-N-[3-(1-pyrrolidinyl)phenyl]-benzamide]
IC50 (human DGAT1): 9.12 nM | melting point: 180 to 182 °C

CC(=O)N1CCN(Cc2cc(Cl)c(CC(=O)N3CCN(c4ccc(C(=O)Nc5cccc(N6CCCC6)c5)cc4)CC3)c(Cl)c2)CC1 [149-Class C, 4-[4-[[4-[(4-acetyl-1-piperazinyl)methyl]-2,6-dichlorophenyl]acetyl]-1-piperazinyl]-N-[3-(1-pyrrolidinyl)phenyl]-benzamide]
IC50 (human DGAT1): 6.17 nM | melting point: 250 to 252 °C

CS(=O)(=O)N1CCN(Cc2cc(Cl)c(CC(=O)N3CCN(c4ccc(C(=O)Nc5cccc(N6CCCC6)c5)cc4)CC3)c(Cl)c2)CC1 [150-Class C, 4-[4-[[2,6-dichloro-4-[[4-(methylsulfonyl)-1-piperazinyl]methyl]phenyl]acetyl]-1-piperazinyl]-N-[3-(1-pyrrolidinyl)phenyl]-benzamide]
IC50 (human DGAT1): 6.03 nM | melting point: 240 to 242 °C

O=C(Nc1cccc(N2CCCC2)c1)c1ccc(N2CCN(C(=O)Cc3ccc(CN4CCCC4)cc3Cl)CC2)cc1 [151-Class C, 4-[4-[[2-chloro-4-(1-pyrrolidinylmethyl)phenyl]acetyl]-1-piperazinyl]-N-[3-(1-pyrrolidinyl)phenyl]-benzamide]
IC50 (human DGAT1): 316 nM | melting point: 224.1 to 225.4 °C

O=C(Nc1cccc(N2CCCC2)c1)c1ccc(N2CCN(C(=O)C(O)c3ccc(CN4CCCC4)cc3Cl)CC2)cc1 (stereo not shown) [152-Class C, 4-[4-[[2-chloro-4-(1-pyrrolidinylmethyl)phenyl]hydroxyacetyl]-1-piperazinyl]-N-[3-(1-pyrrolidinyl)phenyl]-benzamide]
IC50 (human DGAT1): 35.5 nM | melting point: 138.7 to 140.9 °C

O=C(NCc1cccc(N2CCCC2)c1)c1ccc(N2CCN(C(=O)Cc3c(Cl)cc(CN4CCCC4)cc3Cl)CC2)cc1 [267-Class D, 4-[4-[[2,6-dichloro-4-(1-pyrrolidinylmethyl)phenyl]acetyl]-1-piperazinyl]-N-[[3-(1-pyrrolidinyl)phenyl]methyl]-benzamide]
pIC50 (-logIC50, 50% inhibition of DGAT1 activity) (human DGAT1): 6.97

COc1ccc(CC(=O)Nc2ccc(N3CCN(C(=O)Cc4c(Cl)cc(CN5CCCC5)cc4Cl)CC3)cc2)cc1 [351-Class D, N-[4-[4-[[2,6-dichloro-4-(1-pyrrolidinylmethyl)phenyl]acetyl]-1-piperazinyl]phenyl]-4-methoxy-benzeneacetamide]
pIC50 (-logIC50, 50% inhibition of DGAT1 activity) (human DGAT1): 6.62

COc1ccc(CC(=O)Nc2ccc(N3CCN(C(=O)C(O)c4ccc(CN5CCCC5)cc4Cl)CC3)cc2)cc1 (stereo not shown) [352-Class D, N-[4-[4-[[2-chloro-4-(1-pyrrolidinylmethyl)phenyl]hydroxyacetyl]-1-piperazinyl]phenyl]-4-methoxy-benzeneacetamide]
pIC50 (-logIC50, 50% inhibition of DGAT1 activity) (human DGAT1): 6.45

COc1cc(CNC(=O)c2ccc(N3CCN(C(=O)Cc4ccc(CN5CCCC5)cc4Cl)CC3)cc2)cc(OC)c1 [353-Class D, 4-[4-[[2-chloro-4-(1-pyrrolidinylmethyl)phenyl]acetyl]-1-piperazinyl]-N-[(3,5-dimethoxyphenyl)methyl]-benzamide]
IC50 (human DGAT1): 257 nM | melting point: 126.6 to 128.1 °C

O=C(NCc1cccc(N2CCCC2)c1)c1ccc(N2CCN(C(=O)Cc3ccc(CN4CCCC4)cc3Cl)CC2)cc1 [354-Class D, 4-[4-[[2-chloro-4-(1-pyrrolidinylmethyl)phenyl]acetyl]-1-piperazinyl]-N-[[3-(1-pyrrolidinyl)phenyl]methyl]-benzamide]
IC50 (human DGAT1): 646 nM | melting point: 206.3 to 209.4 °C

COc1ccc(CC(=O)Nc2ccc(N3CCN(C(=O)Cc4ccc(CN5CCCC5)cc4Cl)CC3)cc2)cc1 [355-Class D, N-[4-[4-[[2-chloro-4-(1-pyrrolidinylmethyl)phenyl]acetyl]-1-piperazinyl]phenyl]-4-methoxy-benzeneacetamide]
IC50 (human DGAT1): 912 nM | melting point: 153.3 to 155.2 °C

O=C(NCc1cccc(N2CCCC2)c1)c1ccc(N2CCN(C(=O)C(O)c3ccc(CN4CCCC4)cc3Cl)CC2)cc1 (stereo not shown) [356-Class D, 4-[4-[[2-chloro-4-(1-pyrrolidinylmethyl)phenyl]hydroxyacetyl]-1-piperazinyl]-N-[[3-(1-pyrrolidinyl)phenyl]methyl]-benzamide]
IC50 (human DGAT1): 74.1 nM | melting point: 134.4 to 137 °C

COc1cc(CNC(=O)c2ccc(N3CCN(C(=O)C(O)c4ccc(CN5CCCC5)cc4Cl)CC3)cc2)cc(OC)c1 (stereo not shown) [357-Class D, 4-[4-[[2-chloro-4-(1-pyrrolidinylmethyl)phenyl]hydroxyacetyl]-1-piperazinyl]-N-[(3,5-dimethoxyphenyl)methyl]-benzamide]
IC50 (human DGAT1): 55 nM

CCN1CCN(Cc2cc(Cl)c(CC(=O)N3CCN(c4ccc(C(=O)NCc5cccc(N6CCCC6)c5)cc4)CC3)c(Cl)c2)CC1 [359-Class D, 4-[4-[[2,6-dichloro-4-[(4-ethyl-1-piperazinyl)methyl]phenyl]acetyl]-1-piperazinyl]-N-[[3-(1-pyrrolidinyl)phenyl]methyl]-benzamide]
IC50 (human DGAT1): 28.2 nM | melting point: 240 to 241 °C

CCN1CCN(Cc2cc(Cl)c(CC(=O)N3CCN(c4ccc(C(=O)NCc5cc(OC)cc(OC)c5)cc4)CC3)c(Cl)c2)CC1 [360-Class D, 4-[4-[[2,6-dichloro-4-[(4-ethyl-1-piperazinyl)methyl]phenyl]acetyl]-1-piperazinyl]-N-[(3,5-dimethoxyphenyl)methyl]-benzamide]
IC50 (human DGAT1): 7.59 nM | melting point: 159 to 160 °C

Reference: patent US9107946B2, “Drug combinations comprising a DGAT inhibitor and a PPAR-agonist” (Janssen Pharmaceutica NV, priority 2008, dated 2015)
